Key:
[1] = test system: rat duodenum, jejunum and ileum; test: In situ single-pass intestinal perfusion (SPIP); conditions: perfusate 40 μg/mL, n = 6
Procedure: The blank perfusion buffer solution was composed of 9.80 g Hanks’ Balanced Salts, 5.96 g 4-2(Hydroxyethyl) piperazine-1-ethanesulfonic acid (HEPES), 1.16 g NaCl, 3.50 g D-glucose and 0.37 g NaHCO3. The pH was adjusted to 6.5. […] The perfusate containing 2 μg/mL of NCE with and without 0.4% SDS was applied to three intestinal segments to investigate the effect of SDS on intestinal absorption of NCE. To examine whether there was any concentration-dependent characteristics or site specific absorption of NCE, 2, 20 and 40 μg/mL of NCE containing 0.4% SDS (w/v) were also studied in three intestinal segments using the same rat perfusion model.
Male Sprague-Dawley rats (170–230 g) were obtained from the Laboratory Animal Center, Sichuan University (Chengdu, China). Prior to the experiment, animals were fasted for at least 18 h with free access to water. All animal studies were approved and supervised by the State Key Laboratory of Biotherapy Animal Care and Use Committee (Sichuan University, Chengdu, Sichuan, China). Then, single pass intestine perfusion studies were conducted according to the literature. In brief, rats were anaesthetized by pentobarbital sodium (i.p., […]) and placed on a homeothermic pad to maintain their body temperature. After making a 3–4 cm midline abdominal incision, the small intestinal was exposed. The duodenum, jejunum and ileum were isolated as follows: duodenum segment beginning from 1 cm away from pylorus, jejunum segment beginning from 20 cm away from pylorus and ileum segment beginning at the site 20 cm upwards caecum. Each intestinal segment was approximately 10 cm long. After removing the intestinal content by rinsing with warm saline, two glass cannulas were inserted to the distal and proximal end of the segment. Then, the intestinal segments of interest were connected to a perfusion pump and the outlet tubing was placed at the same height as the inlet. The intestine was handled carefully to maintain an intact blood supply.
The segments were rinsed with perfusate at the rate of 1.0 mL/min for 10 min, and then perfused at the rate of 0.2 mL/min for 30 min to maintain a steady-state. The time was set zero immediately when the perfusion started. The outlet perfused samples were collected every 15 min until 120 min. Then, the samples were centrifuged at 1.3 × 10^4 rpm for 10 min. The supernatant was analyzed by HPLC. The length of tested segments was measured and rats were euthanized after experiment.
Peff is the quantitative parameter estimating the passage rate of a solute across a membrane. It was calculated from the steady-state concentration of NCE in the perfusate. The drug concentration in the perfusate was corrected for changes in the water flux. Meanwhile, the density corrected gravimetric method was employed to calculate the net water flux across the incubated intestinal segment. A known volume of perfusate was weighed using an electronic weighing balance to determine the density of the collected samples. After correcting for water flux, the drug concentration in the effluent perfusate (Cout(cor)), was calculated as following.
(3) Cout(cor)=Cout×Qout/Qin
where Cout is the concentration of tested drug in the effluent perfusates, Qin and Qout are the inlet and outlet flow rate (mL/min), respectively, which are adjusted for liquid density (mL/min).
The calculation of permeability across rat intestinal segment was performed from the intestinal perfusate samples collected over 15–120 min (steady state) using the following equation).
(4) Peff=-Qin ln(Cout(cor)/Cin)/2πrl

[2] = test system: rat duodenum, jejunum and ileum; parameters: method as in PMID 15296954, PMID 8893271; conditions: reference compounds; cited from earlier work
[3] = test system: rats; parameters: method as in ref 24 = [24]; 24. Ma N. Wang J. Xu F. Li J. Li Y. Xiao H. Xiang D. Studies on absorptive characters of resveratrol derivative (e)-3,5,4′-trimethoxystilbene in rat intestine Chin. J. Pharm. Anal 2010 30 586 591; conditions: in perfusion buffer, preliminary experiments; cited from earlier work

| Peff ([1]; Duodenum) | Peff ([1]; Ileum) | Peff ([1]; Jejunum) | SMILES | permeability class [2] | concentration toxic to rats [3] |
| --- | --- | --- | --- | --- | --- |
| 0.15 ± 0.07 ^* 10^−4 cm/s | 0.17 ± 0.02 ^N.S ^* 10^−4 cm/s | 0.19 ± 0.07 ^N.S. ^* 10^−4 cm/s | CNC(=C[N+](=O)[O-])NCCSCc1ccc(CN(C)C)o1 [Ranitidine, reference compound] | low permeability |  |
|  |  |  | CCCCCCCCCCCCOS(=O)(=O)[O-].[Na+] [SDS, sodium dodecyl sulfate] |  | higher than 1% |
| 0.74 ± 0.02 ^* 10^−4 cm/s | 0.63 ± 0.04 ^N.S. ^* 10^−4 cm/s | 0.64 ± 0.01 ^N.S. ^* 10^−4 cm/s | Cn1c(=O)c2[nH]cnc2n(C)c1=O [Theophylline, reference compound] |  |  |

— paper PMC4057667, “Study on Biopharmaceutics Classification and Oral Bioavailability of a Novel Multikinase Inhibitor NCE for Cancer Therapy” (International Journal of Molecular Sciences, 2014)
